Entries after “also recorded” stand apart in the source; their conditions may differ. Read-outs that look alike come from different tables or passages of the source. Each block holds one compound with its values, some of them ahead of it.
Experiments:
[1] = Physical properties: equilibrium solubility and salt disproportionation (XRPD, NMR); type: physicochemical
Description: After centrifuging, the supernatant was analyzed by reversed-phase HPLC and the equilibrium solubility determined by comparison with a calibration curve. The solid material was in part transferred onto an XRPD plate, dried and then analyzed by X-Ray Powder Diffraction. The XRPD pattern was compared with positive controls for crystalline K+ salt, crystalline zwitterionic (or acidic) and amorphous forms of the test compound.

[2] = In vivo covalent protein binding of 3H-labelled compound; conditions: Rat @ 6 h, 20 mg/kg oral
Description: In-Vivo Covalent Binding^4: […] Plasma and liver were collected and flash frozen/stored at −80° C. before analysis. Counting of the plasma samples: Place a 200 μL aliquot in a 20 mL scintillation vial. Add 500 μL of SOLVABLE™ and incubate at 1 h with shaking at 55° C. Remove, allow to cool prior to the addition of 15 mL scintillation cocktail, and count. […] Tissue homogenization: […] Counting of the liver homogenate: Aliquots were placed in a 20 mL scintillation vial, diluted with 1 mL of SOLVABLE™ and incubated for 1 h with shaking at 55° C. After removal from the incubator and cooling 15 mL scintillation cocktail and 30% H2O2 were added and the radioactivity counted. Protein precipitation: […] Protein precipitate resuspension: Sonication (minimal intensity, <5 sec) and vortexing until the pellet crumbles in 80% MeOH:20% water. Wash of the protein pellet: 2-5 mL 80:20 MeOH:water. If needed, remove 1.0 mL of the supernatant, add 15 mL of scintillation cocktail and count. Continue to wash the protein pellet until radioactivity in supernatant is <200 DPM or DPMs cease to decrease by more than 200 in consecutive washes. Dissolution of the final pellet: 1 mL of 1 N NaOH or Solvable™, incubated at 50° C. overnight or until completely dissolved. Counting of the final pellet: 1 mL of dissolved pellet, 15 mL scintillation cocktail (if another scintillation cocktail other than ULTIMA GOLD™ is used, pellet may require neutralization using 1 N HCl), and count. Protein concentration of the final pellet: BCA or BIO-RAD kit using BSA as a standard. Counting blank samples: 15 mL scintillation cocktail, in duplicate. Counting of the dosing solution: count a known volume of the dosing solution in triplicate. Data Analysis: Average the radioactivity counts (DPM) of the dosing solution and calculate the specific activity of the dosing solution in μCi/mol. Average the radioactivity counts of the blank samples. Subtract the counts of the averaged blank sample from the counts obtained from each liver and plasma pellet. Calculate the amount of radioactivity (μCi) per unit volume (L) for each liver and plasma pellet. Calculate the concentration of radioactivity in each plasma and liver pellet by dividing the value obtained above (μCi/L) by the specific activity (μCi/mol). Calculate the amount of covalently bound radioactivity to protein in pmol/mg protein.

[3] = Dog pharmacokinetics per os (plasma AUC, liver concentration)
Description: (§1) Plasma samples were collected at time points between 2 minutes and 24 h, and compound levels were determined by RP-HPLC. Liver samples were collected post mortem in rat and following anesthesia (0.5 h prior to biopsy) in dog. Liver samples were weighed, homogenized, and diluted using techniques known to those skilled in the art, and compound levels were determined by RP-HPLC.
(§2) Pharmacokinetic parameters were calculated based on non-compartmental analysis (e.g., using WATSON®, WINNOLIN®). Predose concentrations that were below the limit of quantitation (BLQ) were assigned a value of 0. […] AUC values were calculated using linear trapezoidal method for ascending concentrations and the log trapezoidal method for descending concentrations.

[4] = Rat pharmacokinetics per os (plasma AUC, liver concentration)
Description: as §1, §2

[5] = target: NS 3/4A 1b (Hepatitis C virus genotype 1b, UniProt P26663); assay: biochemical; conditions: genotype 1b enzyme; read-out: NS 3/4A Inhibitory Activity (Ki) lb
Description: A NS3 protease assay can be performed, for example, in a final volume of 100 μl assay buffer containing 50 mM HEPES, pH 7.5, 150 mM NaCl, 15% glycerol, 0.15% TRITON X-100, 10 mM DTT, and 0.1% PEG 8000. NS3 and NS4A protease is pre-incubated with various concentrations of inhibitors in DMSO for 30 minutes. The reaction is initiated by adding the TRF peptide substrate (final concentration 100 nM). NS3 mediated hydrolysis of the substrate is quenched after 1 hour at room temperature with 100 μl of 500 mM MES, pH 5.5. […] IC50 values are derived using a standard four-parameter fit to the data. […] See P. Gallinari et al., 38 BIOCHEM. […] BIOCHEM. […] V. General Compound Production
(§3) NS 3/4A Inhibitory Activity^1 (Ki): NS 3/4A Inhibitory Activity was determined as described in Section IV.

[6] = test system: HCV replicon gt1b; assay: HCV replicon activity, genotype 1b; type: cell-based; conditions: Hepatitis C virus; genotype 1b replicon; 50% viral replication suppression; read-out: Replicon Activity EC50 gtlb
[7] = target: 1b mutant enzyme D168T (Hepatitis C virus genotype 1b, UniProt P26663, D1194T); assay: NS3/4A TRF enzyme assay, 1b mutant D168T; type: biochemical, hepatitis C virus (HCV)
Description: (§4) A NS3 protease assay can be performed, for example, in a final volume of 100 μl assay buffer containing 50 mM HEPES, pH 7.5, 150 mM NaCl, 15% glycerol, 0.15% TRITON X-100, 10 mM DTT, and 0.1% PEG 8000. NS3 and NS4A protease is pre-incubated with various concentrations of inhibitors in DMSO for 30 minutes. The reaction is initiated by adding the TRF peptide substrate (final concentration 100 nM). NS3 mediated hydrolysis of the substrate is quenched after 1 hour at room temperature with 100 μl of 500 mM MES, pH 5.5. […] Testing concentrations of different enzyme forms are selected to result in a signal to background ratio (S/B) of 10-30. IC50 values are derived using a standard four-parameter fit to the data. Ki values are derived from IC50 values using the following formula, IC50=Ki(1+[S]/KM), Eqn (1), where [S] is the concentration of substrate peptide in the reaction and KM is the Michaelis constant. See P. Gallinari et al., 38 BIOCHEM. […] BIOCHEM. […] V. General Compound Production
as §3

[8] = target: 1b mutant enzyme D168A (Hepatitis C virus genotype 1b, UniProt P26663, D1194A); assay: NS3/4A TRF enzyme assay, 1b mutant D168A; type: biochemical, hepatitis C virus (HCV)
Description: as §4, §3

[9] = target: 1b mutant enzyme A156T (Hepatitis C virus genotype 1b, UniProt P26663, A1182T); assay: NS3/4A TRF enzyme assay, 1b mutant A156T; type: biochemical, hepatitis C virus (HCV)
Description: as §4, §3

[10] = target: 1b mutant enzyme D168E (Hepatitis C virus genotype 1b, UniProt P26663, D1194E); assay: NS3/4A TRF enzyme assay, 1b mutant D168E; type: biochemical, hepatitis C virus (HCV)
Description: as §4, §3

[11] = target: 1b mutant enzyme D168G (Hepatitis C virus genotype 1b, UniProt P26663, D1194G); assay: NS3/4A TRF enzyme assay, 1b mutant D168G; type: biochemical, hepatitis C virus (HCV)
Description: as §4, §3

[12] = target: 1b mutant enzyme D168V (Hepatitis C virus genotype 1b, UniProt P26663, D1194V); assay: NS3/4A TRF enzyme assay, 1b mutant D168V; type: biochemical, hepatitis C virus (HCV)
Description: as §4, §3

[13] = target: 1b mutant enzyme A156S (Hepatitis C virus genotype 1b, UniProt P26663, A1182S); assay: NS3/4A TRF enzyme assay, 1b mutant A156S; type: biochemical, hepatitis C virus (HCV)
Description: as §4, §3

[14] = target: 1b mutant enzyme R155G (Hepatitis C virus genotype 1b, UniProt P26663, R1181G); assay: NS3/4A TRF enzyme assay, 1b mutant R155G; type: biochemical, hepatitis C virus (HCV)
Description: as §4, §3

[15] = target: 1b mutant enzyme R155N (Hepatitis C virus genotype 1b, UniProt P26663, R1181N); assay: NS3/4A TRF enzyme assay, 1b mutant R155N; type: biochemical, hepatitis C virus (HCV)
Description: as §4, §3

[16] = target: 1b mutant enzyme D168Y (Hepatitis C virus genotype 1b, UniProt P26663, D1194Y); assay: NS3/4A TRF enzyme assay, 1b mutant D168Y; type: biochemical, hepatitis C virus (HCV)
Description: as §4, §3

[17] = target: 1b mutant enzyme A156V (Hepatitis C virus genotype 1b, UniProt P26663, A1182V); assay: NS3/4A TRF enzyme assay, 1b mutant A156V; type: biochemical, hepatitis C virus (HCV)
Description: as §4, §3

[18] = target: 1b mutant enzyme R155Q (Hepatitis C virus genotype 1b, UniProt P26663, R1181Q); assay: NS3/4A TRF enzyme assay, 1b mutant R155Q; type: biochemical, hepatitis C virus (HCV)
Description: as §4, §3

[19] = target: 1b mutant enzyme R155K (Hepatitis C virus genotype 1b, UniProt P26663, R1181K); assay: NS3/4A TRF enzyme assay, 1b mutant R155K; type: biochemical, hepatitis C virus (HCV)
Description: as §4, §3

[20] = target: 1b mutant enzyme D168Q (Hepatitis C virus genotype 1b, UniProt P26663, D1194Q); assay: NS3/4A TRF enzyme assay, 1b mutant D168Q; type: biochemical, hepatitis C virus (HCV)
Description: as §4, §3

Structure (SMILES): C=C[C@@H]1C[C@]1(NC(=O)[C@@H]1C[C@@H]2CN1C(=O)[C@H](C(C)(C)C)NC(=O)O[C@@H]1C[C@H]1CCCCCc1nc3ccc(OC)cc3nc1O2)C(=O)[N-]S(=O)(=O)C1CC1.[K+] [Example 1, Potassium {[(1R,2S)-1-({[(1aR,5S,8S,10R,22aR)-5-tert-butyl-14-methoxy-3,6-dioxo-1,1a,3,4,5,6,9,10,18,19,20,21,22,22a-tetradecahydro-8H-7,10-methanocyclopropa[18,19][1,10,3,6]dioxadiazacyclononadecino[11,12-b]quinoxalin-8-yl]carbonyl}amino)-2-vinylcyclopropyl]carbonyl}(cyclopropylsulfonyl)azanide]
- solubility at 24 h ([1]; thermodynamic from solid; K+ salt form, water; read-out: Aqueous solubility of K+ salt form): 1800 µg/mL
- Covalent Protein Binding In Vivo, liver ([2]; LOQ = 3 pmol/mg): liver = LOQ
- Covalent Protein Binding In Vivo, plasma ([2]; LOQ = 3 pmol/mg, 20 mg/kg): undetectable binding; also recorded: plasma = LOQ,
- Dog Liver Concentration @ 24 h (5mpk per os) ([3]; 5 mpk per os): 120 µM
- Dog Plasma AUC @ 5mpk per os ([3]; 5 mpk per os, plasma): 48.6 µM·h
- Rat Liver Concentration @ 24 h (25 mpk per os) ([4]; 25 mpk per os): 27.9 µM
- Rat Plasma AUC @ 25mpk per os ([4]; 25 mpk per os, plasma): 20.6 µM·h

- Covalent Protein Binding In Vivo, liver [2]: liver = 63 pmol eq./mg
- Covalent Protein Binding In Vivo, plasma [2]: plasma = 6 pmol eq./mg
Structure (SMILES): C=C[C@@H]1C[C@]1(NC(=O)[C@@H]1C[C@@H]2CN1C(=O)[C@H](C1CCCC1)NC(=O)O[C@@H]1CCC[C@H]1CCCCCc1nc3ccccc3cc1O2)C(=O)NS(=O)(=O)C1CC1 [WO 2008/057209 Example 96]

- Covalent Protein Binding In Vivo, liver [2]: liver = 24 pmol eq./mg
- Covalent Protein Binding In Vivo, plasma [2]: plasma = 6 pmol eq./mg
Structure (SMILES): C=C[C@@H]1C[C@]1(NC(=O)[C@@H]1C[C@@H]2CN1C(=O)[C@H](C(C)(C)C)NC(=O)O[C@@H]1CCC[C@H]1CCCCCc1nc3ccc(OC)cc3cc1O2)C(=O)NS(=O)(=O)C1CC1 [WO 2008/057209 Example 103]

- Covalent Protein Binding In Vivo, liver [2]: liver = 38 pmol eq./mg
- Covalent Protein Binding In Vivo, plasma [2]: plasma = 15 pmol eq./mg
Structure (SMILES): C=C[C@@H]1C[C@]1(NC(=O)[C@@H]1C[C@@H]2CN1C(=O)[C@H](C1CCCC1)NC(=O)O[C@@H]1CCC[C@H]1CCCCCc1nc3ccccc3nc1O2)C(=O)NS(=O)(=O)C1CC1 [WO 2008/057209 Example 108]

Structure (SMILES): C=C[C@@H]1C[C@]1(NC(=O)[C@@H]1C[C@@H]2CN1C(=O)[C@H](C(C)(C)C)NC(=O)O[C@@H]1C[C@H]1CCCCCc1nc3ccc(OC)cc3cc1O2)C(=O)NS(=O)(=O)C1CC1 [WO 2008/057209 Example 110]
- solubility at 24 h ([1]; water, thermodynamic from solid, K+ salt form, read-out: Aqueous solubility of K+ salt form): 9700 µg/mL
- solubility at 24 h ([1]; water, thermodynamic from solid, crystalline zwitterionic form from disproportionation of the K+ salt, read-out: Aqueous solubility of crystalline zwitterionic form): < 9 µg/mL
- Covalent Protein Binding In Vivo, liver ([2]; LOQ = 3 pmol/mg): liver = BLQ
- Covalent Protein Binding In Vivo, plasma ([2]; LOQ = 3 pmol/mg): plasma = BLQ,
- Dog Liver Concentration @ 24 h (5mpk per os) ([3]; 5 mpk per os): 3.3 µM
- AUC ([3]; plasma, po, 5 mg/kg): 1 µM·h
- Rat Liver Concentration @ 24 h (25 mpk per os) ([4]; 25 mpk per os): 8.5 µM
- AUC ([4]; plasma, po, 25 mg/kg): 5.8 µM·h
- Ki [5]: < 0.016 nM
- EC50 [6]: 5 nM

Structure (SMILES): C=C[C@@H]1C[C@]1(NC(=O)[C@@H]1C[C@@H]2CN1C(=O)[C@H](C(C)(C)C)NC(=O)O[C@@H]1CCC[C@H]1CCCCCc1nc3ccc(OC)cc3nc1O2)C(=O)NS(=O)(=O)C1CC1 [WO 2008/057209 Example 118]
- Ki [7]: 0.78 nM
- Ki [8]: 0.86 nM
- Ki [9]: 3.4 nM
- Ki [10]: 0.12 nM
- Ki [11]: 0.45 nM
- Ki [12]: 0.65 nM
- Ki [13]: 0.1 nM
- Ki [14]: 2.3 nM
- Ki [15]: 0.56 nM
- Ki [5]: < 0.016 nM
- EC50 [6]: 3 nM
- Ki [16]: 1.5 nM
- Ki [17]: 15 nM
- Ki [18]: 1.9 nM
- Ki [19]: 0.08 nM
- Ki [20]: 0.42 nM

From US8080654B2, “Macrocyclic quinoxaline compounds as HCV NS3 protease inhibitors” (Insituto di Ricerche di Biologia Molecolare P. Angeletti SpA, priority 2008, dated 2011)
